In ChEMBL document CHEMBL4354864, “Bicyclic α-Iminophosphonates as High Affinity Imidazoline I2 Receptor Ligands for Alzheimer's Disease” (J Med Chem, 2020):
≈ marks a conversion by molar mass, not a printed value. Calls of active or inactive are those of the source. The calls are words filed in the database; no cut-off is given here.

Experiments:
[1] = target: Nischarin (Homo sapiens, UniProt Q9Y2I1); assay: Displacement of [3H]clonidine from I1IR in human brain frontal cortex in presence of adrenaline incubated for 45 mins by liquid scintillation spectrometry; assay type: tissue-based
[2] = Effective permeability of compound by PAMPA-BBB assay; assay type: ADME; details: read-out: Peff
[3] = test system: HeLa; assay: Cytotoxicity against human HeLa cells assessed as effect on cell morphology at 100 uM incubated for 3 to 5 days by microscopic analysis; assay type: cell-based
[4] = test system: MT4; assay: Cytotoxicity against human MT4 cells assessed as effect on cell morphology at 100 uM incubated for 3 to 5 days by microscopic analysis; assay type: cell-based; details: mt4, 100 µM
[5] = test system: Vero; assay: Cytotoxicity against monkey Vero cells assessed as reduction in cell viability at 100 uM incubated for 3 to 5 days by colorimetric analysis; assay type: cell-based; details: chlorocebus sabaeus
[6] = test system: MDCK; assay: Cytotoxicity against dog MDCK cells assessed as reduction in cell viability at 100 uM incubated for 3 to 5 days by colorimetric analysis; assay type: cell-based, Canis lupus familiaris
[7] = test system: MT4; assay: Cytotoxicity against human MT4 cells assessed as reduction in cell viability at 100 uM incubated for 3 to 5 days by colorimetric analysis; assay type: cell-based; details: mt4, 100 µM
[8] = Cytotoxicity against human MRC5 cells assessed as reduction in cell viability incubated for 3 to 5 days by colorimetric analysis; assay type: cell-based
[9] = Solubility of compound in 99% PBS buffer incubated for 2 hrs by nephelometry; assay type: physicochemical
[10] = Solubility of compound in methanol incubated for 2 hrs by nephelometry; assay type: physicochemical
[11] = Solubility of compound in acetonitrile incubated for 2 hrs by nephelometry; assay type: physicochemical
[12] = Solubility of compound in water incubated for 2 hrs by nephelometry; assay type: physicochemical; details: buffer
[13] = Chemical stability of compound by HPLC analysis; assay type: physicochemical
[14] = Stability in human liver microsomes at 5 uM incubated for 60 mins by UPLC-MS/MS analysis; assay type: ADME, Microsome; details: 1 h
[15] = target: T1, Cytochrome P450 1A2 (Homo sapiens, UniProt P05177); assay: Inhibition of recombinant human CYP1A2 at 10 uM using 3-cyano-7-ethoxycoumarin as substrate incubated for 5 mins followed by substrate addition by fluorescence based assay; assay type: ADME; details: recombinant enzyme
T1 sequence (P05177 whole entry): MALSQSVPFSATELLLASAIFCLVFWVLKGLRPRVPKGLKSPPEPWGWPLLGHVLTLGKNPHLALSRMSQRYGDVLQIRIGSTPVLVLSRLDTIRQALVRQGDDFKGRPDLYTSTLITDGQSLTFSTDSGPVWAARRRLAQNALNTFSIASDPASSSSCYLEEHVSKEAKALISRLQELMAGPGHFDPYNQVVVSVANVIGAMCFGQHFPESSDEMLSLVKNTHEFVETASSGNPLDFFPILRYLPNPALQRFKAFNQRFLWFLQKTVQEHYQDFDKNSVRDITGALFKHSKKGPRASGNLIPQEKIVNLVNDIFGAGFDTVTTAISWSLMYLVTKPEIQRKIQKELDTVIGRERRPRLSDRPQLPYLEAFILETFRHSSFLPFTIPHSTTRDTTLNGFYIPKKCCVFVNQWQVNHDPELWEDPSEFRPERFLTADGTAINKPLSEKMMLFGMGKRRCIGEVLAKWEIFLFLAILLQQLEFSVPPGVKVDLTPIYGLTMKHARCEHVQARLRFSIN

[16] = target: Cytochrome P450 2C9 (Homo sapiens, UniProt P11712); assay: Inhibition of recombinant human CYP2C9 at 10 uM using 7-methoxy-4-(trifluoromethyl)coumarin as substrate incubated for 5 mins followed by substrate addition by fluorescence based assay; assay type: ADME; details: recombinant enzyme
[17] = target: Cytochrome P450 2C19 (Homo sapiens, UniProt P33261); assay: Inhibition of recombinant human CYP2C19 at 10 uM using 3-cyano-7-ethoxycoumarin as substrate incubated for 5 mins followed by substrate addition by fluorescence based assay; assay type: ADME; details: recombinant enzyme
[18] = target: Cytochrome P450 3A4 (Homo sapiens, UniProt P08684); assay: Inhibition of recombinant human CYP3A4 at 10 uM using 7-benzyloxytrifluoromethyl coumarin (7-BFC) and Dibenzylfluorescein as substrate incubated for 5 mins followed by substrate addition by fluorescence based assay; assay type: ADME; details: recombinant enzyme
[19] = target: Cytochrome P450 2D6 (Homo sapiens, UniProt P10635); assay: Inhibition of recombinant human CYP2D6 at 10 uM using AMMC as substrate incubated for 5 mins followed by substrate addition by fluorescence based assay; assay type: ADME; details: recombinant enzyme
[20] = target: Voltage-gated inwardly rectifying potassium channel KCNH2 (Homo sapiens, UniProt Q12809); assay: Inhibition of recombinant human ERG expressed in CHO cells by patch clamp assay; assay type: cell-based
[21] = target: T2, Gastrin/cholecystokinin type B receptor (Homo sapiens, UniProt P32239); assay: Displacement of [125I]CCK-8s from human CCKB incubated for 60 mins by scintillation counting method
T2 sequence (P32239 whole entry): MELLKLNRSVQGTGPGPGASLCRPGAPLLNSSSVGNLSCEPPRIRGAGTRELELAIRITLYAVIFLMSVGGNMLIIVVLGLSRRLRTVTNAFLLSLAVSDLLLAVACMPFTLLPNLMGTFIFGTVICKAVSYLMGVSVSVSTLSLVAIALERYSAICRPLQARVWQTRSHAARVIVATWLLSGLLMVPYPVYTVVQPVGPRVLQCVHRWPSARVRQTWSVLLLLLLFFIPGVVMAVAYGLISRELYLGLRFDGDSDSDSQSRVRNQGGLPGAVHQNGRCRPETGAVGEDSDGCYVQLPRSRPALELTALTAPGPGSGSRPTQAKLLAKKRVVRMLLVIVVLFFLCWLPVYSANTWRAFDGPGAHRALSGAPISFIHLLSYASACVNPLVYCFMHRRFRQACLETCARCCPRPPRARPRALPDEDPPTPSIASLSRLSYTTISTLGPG

[22] = test system: Mus musculus; assay: Induction of hypothermia in CD-1 mouse assessed as reduction in body temperature at 20 mg/kg, ip administered for 5 days by thermometric method; assay type: functional, organism-based
[23] = test system: Mus musculus; assay: Effect on FADD in CD-1 mouse at 20 mg/kg, ip measured after 1 hr by Westernblot analysis; assay type: functional
[24] = test system: Mus musculus; assay: Effect on FADD in CD-1 mouse at 20 mg/kg, ip administered for 5 days and measured after 1 hr of last dosage by Westernblot analysis; assay type: functional, organism-based
[25] = test system: Mus musculus; assay: Antineuroinflammatory activity in mouse model of 5xFAD assessed as reduction in TNFalpha expression at 5 mg/kg, po administered for 4 weeks by qRT-PCR analysis; assay type: functional, organism-based
[26] = test system: Mus musculus; assay: Antineuroinflammatory activity in mouse model of 5xFAD assessed as reduction in sAPPbeta expression at 5 mg/kg, po administered for 4 weeks by Western blot analysis; assay type: functional, organism-based
[27] = test system: Mus musculus; assay: Antineuroinflammatory activity in mouse model of 5xFAD assessed as effect on iNOS expression at 5 mg/kg, po administered for 4 weeks by qRT-PCR analysis; assay type: functional, organism-based
[28] = test system: Mus musculus; assay: Antineuroinflammatory activity in mouse model of 5xFAD assessed as reduction in H2O2 level at 5 mg/kg, po administered for 4 weeks; assay type: functional, organism-based
[29] = Solubility of compound in 1% DMSO incubated for 2 hrs by nephelometry; assay type: physicochemical

Nischarin, sequence (Q9Y2I1 whole entry): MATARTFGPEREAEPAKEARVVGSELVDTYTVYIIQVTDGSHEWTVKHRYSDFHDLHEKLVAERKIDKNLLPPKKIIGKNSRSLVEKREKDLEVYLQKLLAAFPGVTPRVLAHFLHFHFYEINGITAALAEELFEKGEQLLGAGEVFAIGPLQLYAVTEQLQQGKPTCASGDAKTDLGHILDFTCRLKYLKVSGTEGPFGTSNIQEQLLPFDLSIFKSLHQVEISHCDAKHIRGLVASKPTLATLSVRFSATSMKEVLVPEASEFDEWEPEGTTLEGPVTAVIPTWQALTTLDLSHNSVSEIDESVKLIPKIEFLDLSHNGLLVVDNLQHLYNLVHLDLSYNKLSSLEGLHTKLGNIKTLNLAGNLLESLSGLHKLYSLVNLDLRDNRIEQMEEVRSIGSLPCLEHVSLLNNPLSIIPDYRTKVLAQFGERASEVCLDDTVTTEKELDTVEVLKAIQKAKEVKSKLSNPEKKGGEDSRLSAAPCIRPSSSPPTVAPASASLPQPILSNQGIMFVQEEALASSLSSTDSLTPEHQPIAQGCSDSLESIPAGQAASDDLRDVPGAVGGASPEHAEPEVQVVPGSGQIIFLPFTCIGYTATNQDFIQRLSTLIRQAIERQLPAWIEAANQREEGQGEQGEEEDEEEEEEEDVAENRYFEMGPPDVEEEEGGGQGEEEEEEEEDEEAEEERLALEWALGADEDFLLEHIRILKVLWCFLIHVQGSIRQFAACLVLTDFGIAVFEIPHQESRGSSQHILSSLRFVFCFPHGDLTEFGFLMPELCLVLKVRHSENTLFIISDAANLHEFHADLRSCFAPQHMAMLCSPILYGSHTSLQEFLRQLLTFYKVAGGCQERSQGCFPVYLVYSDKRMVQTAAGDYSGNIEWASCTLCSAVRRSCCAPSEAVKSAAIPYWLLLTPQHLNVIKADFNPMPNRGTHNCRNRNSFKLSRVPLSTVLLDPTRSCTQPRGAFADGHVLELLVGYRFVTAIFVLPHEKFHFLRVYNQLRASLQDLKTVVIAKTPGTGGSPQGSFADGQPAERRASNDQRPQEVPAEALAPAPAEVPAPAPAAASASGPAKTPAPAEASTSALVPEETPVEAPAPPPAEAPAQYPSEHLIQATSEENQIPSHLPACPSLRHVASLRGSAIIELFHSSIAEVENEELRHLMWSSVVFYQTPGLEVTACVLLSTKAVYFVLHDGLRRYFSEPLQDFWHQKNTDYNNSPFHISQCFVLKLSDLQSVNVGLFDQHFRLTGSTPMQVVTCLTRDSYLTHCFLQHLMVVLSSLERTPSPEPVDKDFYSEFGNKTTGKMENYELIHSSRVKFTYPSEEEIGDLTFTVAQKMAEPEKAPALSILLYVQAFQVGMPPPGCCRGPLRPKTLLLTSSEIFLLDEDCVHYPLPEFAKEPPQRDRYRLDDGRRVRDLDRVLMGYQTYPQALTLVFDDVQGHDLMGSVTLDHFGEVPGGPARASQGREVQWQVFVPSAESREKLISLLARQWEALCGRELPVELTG
Cytochrome P450 2D6, sequence (P10635 whole entry): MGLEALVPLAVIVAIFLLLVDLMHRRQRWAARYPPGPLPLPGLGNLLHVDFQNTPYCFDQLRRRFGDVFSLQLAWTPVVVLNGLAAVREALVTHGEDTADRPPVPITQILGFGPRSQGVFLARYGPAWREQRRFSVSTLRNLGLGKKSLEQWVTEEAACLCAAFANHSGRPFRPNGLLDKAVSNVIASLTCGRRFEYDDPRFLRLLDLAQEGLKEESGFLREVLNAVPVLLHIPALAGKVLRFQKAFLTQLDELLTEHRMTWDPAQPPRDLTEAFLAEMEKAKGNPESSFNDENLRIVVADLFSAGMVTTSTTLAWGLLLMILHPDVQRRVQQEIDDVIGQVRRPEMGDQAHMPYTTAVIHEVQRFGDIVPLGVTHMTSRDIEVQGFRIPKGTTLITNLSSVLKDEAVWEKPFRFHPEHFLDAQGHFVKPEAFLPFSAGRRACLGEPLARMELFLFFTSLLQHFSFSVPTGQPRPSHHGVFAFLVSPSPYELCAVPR
Cytochrome P450 3A4, sequence (P08684 whole entry): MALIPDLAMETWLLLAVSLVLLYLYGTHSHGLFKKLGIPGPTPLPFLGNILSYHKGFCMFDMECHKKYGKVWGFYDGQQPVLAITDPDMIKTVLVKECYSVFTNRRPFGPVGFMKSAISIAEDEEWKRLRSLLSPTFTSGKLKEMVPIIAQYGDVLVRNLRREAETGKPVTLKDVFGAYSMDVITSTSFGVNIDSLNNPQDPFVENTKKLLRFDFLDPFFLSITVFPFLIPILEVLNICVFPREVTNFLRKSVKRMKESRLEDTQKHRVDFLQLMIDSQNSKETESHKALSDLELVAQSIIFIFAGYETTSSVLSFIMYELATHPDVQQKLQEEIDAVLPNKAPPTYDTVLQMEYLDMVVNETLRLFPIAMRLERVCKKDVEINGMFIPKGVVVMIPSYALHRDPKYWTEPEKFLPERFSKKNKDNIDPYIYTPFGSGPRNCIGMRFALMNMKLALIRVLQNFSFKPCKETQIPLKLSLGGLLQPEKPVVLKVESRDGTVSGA
Cytochrome P450 2C9, sequence (P11712 whole entry): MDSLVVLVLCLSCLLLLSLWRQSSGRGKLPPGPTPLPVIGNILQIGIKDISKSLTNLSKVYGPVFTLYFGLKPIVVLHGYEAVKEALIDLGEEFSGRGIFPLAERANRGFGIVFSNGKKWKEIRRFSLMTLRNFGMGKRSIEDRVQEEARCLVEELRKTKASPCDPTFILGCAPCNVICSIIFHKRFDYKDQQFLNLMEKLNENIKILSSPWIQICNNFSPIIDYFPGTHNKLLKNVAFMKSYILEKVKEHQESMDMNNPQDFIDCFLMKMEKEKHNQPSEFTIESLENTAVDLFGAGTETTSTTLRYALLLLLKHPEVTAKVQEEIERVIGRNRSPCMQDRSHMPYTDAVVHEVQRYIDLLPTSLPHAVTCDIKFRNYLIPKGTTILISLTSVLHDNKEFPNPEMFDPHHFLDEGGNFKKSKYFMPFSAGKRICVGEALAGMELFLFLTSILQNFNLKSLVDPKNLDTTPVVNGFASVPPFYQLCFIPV
Cytochrome P450 2C19, sequence (P33261 whole entry): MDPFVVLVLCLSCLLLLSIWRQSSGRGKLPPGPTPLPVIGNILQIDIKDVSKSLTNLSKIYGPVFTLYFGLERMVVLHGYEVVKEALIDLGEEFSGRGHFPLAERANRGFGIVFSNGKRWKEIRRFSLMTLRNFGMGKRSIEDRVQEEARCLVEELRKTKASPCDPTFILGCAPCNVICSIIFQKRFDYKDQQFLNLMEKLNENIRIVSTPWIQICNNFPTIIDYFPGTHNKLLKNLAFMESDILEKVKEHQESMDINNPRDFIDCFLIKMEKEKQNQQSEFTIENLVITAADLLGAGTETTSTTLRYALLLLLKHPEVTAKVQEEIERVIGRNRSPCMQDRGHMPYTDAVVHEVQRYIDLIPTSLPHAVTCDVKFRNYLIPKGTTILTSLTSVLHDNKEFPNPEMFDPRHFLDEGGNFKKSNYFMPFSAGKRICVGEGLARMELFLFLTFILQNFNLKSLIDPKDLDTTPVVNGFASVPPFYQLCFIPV
Voltage-gated inwardly rectifying potassium channel KCNH2, sequence (Q12809 whole entry): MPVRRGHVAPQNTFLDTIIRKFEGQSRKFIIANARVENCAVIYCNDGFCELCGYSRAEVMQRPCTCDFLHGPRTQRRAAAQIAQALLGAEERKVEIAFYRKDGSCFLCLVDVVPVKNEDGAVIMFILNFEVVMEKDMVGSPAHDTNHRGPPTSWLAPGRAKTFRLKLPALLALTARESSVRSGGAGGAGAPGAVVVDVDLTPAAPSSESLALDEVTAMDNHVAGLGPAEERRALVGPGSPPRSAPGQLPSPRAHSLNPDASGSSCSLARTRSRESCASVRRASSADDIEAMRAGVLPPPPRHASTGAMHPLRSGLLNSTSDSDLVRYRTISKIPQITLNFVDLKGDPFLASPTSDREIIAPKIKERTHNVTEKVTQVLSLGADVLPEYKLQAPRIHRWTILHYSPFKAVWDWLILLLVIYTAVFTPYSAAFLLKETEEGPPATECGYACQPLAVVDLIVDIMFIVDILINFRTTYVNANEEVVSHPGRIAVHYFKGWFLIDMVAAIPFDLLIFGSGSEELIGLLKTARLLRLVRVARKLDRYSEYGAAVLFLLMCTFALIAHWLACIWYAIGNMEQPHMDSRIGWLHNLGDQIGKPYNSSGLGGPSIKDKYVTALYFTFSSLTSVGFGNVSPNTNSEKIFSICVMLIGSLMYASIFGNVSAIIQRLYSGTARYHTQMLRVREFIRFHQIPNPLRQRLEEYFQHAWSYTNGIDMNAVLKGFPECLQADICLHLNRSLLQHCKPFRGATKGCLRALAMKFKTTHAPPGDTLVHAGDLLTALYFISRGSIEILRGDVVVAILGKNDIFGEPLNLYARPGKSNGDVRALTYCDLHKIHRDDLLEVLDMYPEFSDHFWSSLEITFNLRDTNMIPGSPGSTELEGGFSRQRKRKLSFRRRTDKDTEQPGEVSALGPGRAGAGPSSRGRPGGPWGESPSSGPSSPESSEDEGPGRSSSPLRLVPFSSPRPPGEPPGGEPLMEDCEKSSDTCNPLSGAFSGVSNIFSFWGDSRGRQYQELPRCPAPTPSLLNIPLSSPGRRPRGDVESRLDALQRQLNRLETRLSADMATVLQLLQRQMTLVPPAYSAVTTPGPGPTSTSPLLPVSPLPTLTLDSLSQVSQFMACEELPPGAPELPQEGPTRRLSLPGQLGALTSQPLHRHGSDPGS

Q: Which IC50 [1] does the source give for `CCOP(=O)(OCC)C1(c2ccccc2)N=CC2C(=O)N(c3ccc(F)c(Cl)c3)C(=O)C21` (racemic) here?
A: 912 µM

Q: And the Ki [1]?
A: 912 µM

Q: And the Papp [2]?
A: 9.7 ×10⁻⁶ cm/s

Q: What about the Activity [3] of the same molecule?
A: Non-Toxic

Q: And the Activity [4]?
A: Non-Toxic

Q: And the Activity [5]?
A: Non-Toxic

Q: What about the Activity [6] of the same molecule?
A: Non-Toxic

Q: What about the Activity [7] of the same molecule?
A: Non-Toxic

Q: What about the CC50 [8] of the same molecule?
A: > 100 µM

Q: And the solubility kinetic at 2 h [9]?
A: 92 µM (≈ 44.1 µg/mL)

Q: And the solubility [10]?
A: Soluble

Q: And the solubility [11]?
A: Soluble

Q: And the solubility [12]?
A: Soluble

Q: What about the Stability [13] of the same molecule?
A: 100%

Q: What about the Stability [14] of the same molecule?
A: Stable

Q: And the “inhibition (INH)” value [15]?
A: Not Active

Q: And the “inhibition (INH)” value [16]?
A: Not Active

Q: And the “inhibition (INH)” value [17]?
A: Not Active

Q: And the “inhibition (INH)” value [18]?
A: Not Active

Q: And the “inhibition (INH)” value [19]?
A: Not Active

Q: And the “inhibition (INH)” value [20]?
A: Not Active

Q: What about the IC50 [21] of the same molecule?
A: > 10 µM

Q: What about the T [22] of the same molecule?
A: inactive

Q: What about the Activity [23] of the same molecule?
A: -30%

Q: What about the Activity [24] of the same molecule?
A: inactive

Q: And the Activity [25]?
A: Active

Q: And the Activity [26]?
A: Active

Q: And the Activity [27]?
A: Active

Q: What about the Activity [28] of the same molecule?
A: Active

Q: And the solubility kinetic at 2 h [29]?
A: 92 µM (≈ 44.1 µg/mL)
